Laboratory results as given in PMC9241695, “Selective Metal Chelation by a Thiosemicarbazone Derivative Interferes with Mitochondrial Respiration and Ribosome Biogenesis in Candida albicans” (Microbiology Spectrum, 2022).

Key:
C. albicans 11e = experiment: Microbroth dilution MIC80; format: cell-based; conditions: Candida albicans, 11E
Text: (§1) Compound library. The thiosemicarbazone derivatives Triapine and COTI-2 were purchased from Med Chem Express (MCE). The other 87 thiosemicarbazones used in this study were previously synthesized by our collaborators (1, 2). Their structures are shown in Table 1 and Table S1 to help the reader clearly understand the relationship between structure and activity.
(§2) Strains and culture conditions. Clinically derived C. albicans isolates, including G5, F5, and Gu5, were kindly provided by Professor Joachim Morschhäuser of the University of Würzburg. Other clinical C. albicans isolates were kindly donated by Professor Qingguo Qi of Shandong University and Qianfoshan Hospital of Shandong Province Other Candida strains were obtained from Jinan Central Hospital.
(§3) The zap1 mutant and its complemented strain were kindly provided by Professor Aaron P. Mitchell of Carnegie Mellon University (3). The C. neoformans strains used in this study was kindly donated by Professor Guojian Liao of Southwest University and A. fumigatus strain used in this study was provided by Professor Ling Lu of Nanjing Normal University. Before in vitro and in vivo experiments, all C. albicans strains were grown on YPD agar plates. After culturing at 30°C for 24 h, colonies of each strain were cultured in liquid YPD medium at 30°C with continuous shaking […]
(§4) Antifungal susceptibility testing. To determine in vitro antifungal activities, the microbroth dilution method was carried out in RPMI1640 medium according to the guidelines of the Clinical and Laboratory Standards Institute (4, 5). The initial concentration in RPMI1640 medium was 1 × 10^3 CFU/mL for the C. albicans and C. neoformans suspensions but 1 × 10^4 CFU/mL for A. fumigatus. The range of final drug concentrations was 0.0156–64 μg/mL. The plates were incubated at35°C for 24 […]
(§5) h (for C. albicans, C. krusei, C. tropicalis, C. parapsilosis) or 48 h (for C. neoformans, A. fumigatus). The MIC was determined based on visible growth inhibition compared with the control. All experiments were performed in duplicate. […]

C. albicans YEM13 = experiment: Microbroth dilution MIC80; format: cell-based; conditions: Candida albicans
Text: as §1, §2, §3, §4, §5

C. albicans CA1 = experiment: Microbroth dilution MIC80; format: cell-based; conditions: Candida albicans, CA1
Text: as §1, §2, §3, §4, §5

C. albicans 28I = experiment: Microbroth dilution MIC80; format: cell-based; conditions: Candida albicans, 28I
Text: as §1, §2, §3, §4, §5

C. tropicalis CT2 = experiment: Microbroth dilution MIC80; format: cell-based; conditions: Candida tropicalis, CT2
Text: as §1, §2, §3, §4, §5

C. albicans CA4 = experiment: Microbroth dilution MIC80; format: cell-based; conditions: Candida albicans, CA4
Text: as §1, §2, §3, §4, §5

C. albicans 28D = experiment: Microbroth dilution MIC80; format: cell-based; conditions: Candida albicans, 28D
Text: as §1, §2, §3, §4, §5

C. albicans 28A = experiment: Microbroth dilution MIC80; format: cell-based; conditions: Candida albicans, 28A
Text: as §1, §2, §3, §4, §5

A. fumigatus 1161 = experiment: Microbroth dilution MIC80; format: cell-based; conditions: Aspergillus fumigatus, 1161
Text: as §1, §2, §3, §4, §5

C. albicans 24g = experiment: Microbroth dilution MIC80; format: cell-based; conditions: Candida albicans, 24G
Text: as §1, §2, §3, §4, §5

C. albicans 11f = experiment: Microbroth dilution MIC80; format: cell-based; conditions: Candida albicans, 11F
Text: as §1, §2, §3, §4, §5

C. albicans F5 = experiment: Microbroth dilution MIC80; format: cell-based; conditions: Candida albicans, F5
Text: as §1, §2, §3, §4, §5

C. albicans CA3 = experiment: Microbroth dilution MIC80; format: cell-based; conditions: Candida albicans, CA3
Text: as §1, §2, §3, §4, §5

C. albicans SC5314 = experiment: Antifungal susceptibility testing, microbroth dilution MIC; format: cell-based; conditions: Candida albicans, SC5314; C. albicans wild-type strain; RPMI1640, 35°C, 24 h; read-out: MIC (μg/mL) against fungi SC5314
Text: as §1, §2, §3, §4, §5

C. parapsilosis CP001 = experiment: Microbroth dilution MIC80; format: cell-based, Candida parapsilosis; conditions: Lodderomyces parapsilosis, CP001
Text: as §1, §2, §3, §4, §5

C/C(=N\NC(=S)Nc1ccc(Br)cc1)c1ccccn1 [Compound 19t]
0.5 µg/mL: MIC80 (C. albicans 11e) | MIC80 (C. albicans 28I) | MIC80 (C. tropicalis CT2) | MIC (C. albicans SC5314) | MIC80 (C. parapsilosis CP001)
1 µg/mL: MIC80 (C. albicans YEM13)
0.125 µg/mL: MIC80 (A. fumigatus 1161)
0.25 µg/mL: MIC80 (C. albicans CA1) | MIC80 (C. albicans CA4) | MIC80 (C. albicans 28D) | MIC80 (C. albicans 28A) | MIC80 (C. albicans 24g) | MIC80 (C. albicans 11f) | MIC80 (C. albicans F5) | MIC80 (C. albicans CA3)
